MIC and solubility data for two molecules are collected here from patent publication EP0514268A1, “Substituted amino acid azetidinyl pyridone derivatives, their preparation and use as medicines” (LABORATORIOS DEL DR. ESTEVE, S.A., priority 1991, dated 1992).

By solubility is commonly meant the concentration that dissolves in the medium under given conditions.

One data set concerns Staph. aureus ATCC 25178. Nature of the data set: Antimicrobial activity, agar dilution. The format is cell-based, Staphylococcus aureus. As to conditions: Staphylococcus aureus, ATCC25178, 20 h, Agar Dextrose dilutions, 37°C, 20 heures, read-out: Activité pharmacologique antimicrobienne (concentrations). From the text:
(§1) L'activité pharmacologique antimicrobienne de ces composés a été étudiée selon les références exposées ci-dessous.
(§2) Activité pharmacologique antimicrobienne : G.L. Daquet et Y.A. Chabbect, techniques en bactériologie, Vol. 3, Flammarion Médecine-Sciences, Paris 1972, et W.B. Hugo et A.D. Rusell, Pharmaceutical Microbiology, Blackwell Scientific Publications, London, 1977.
(§3) Milieu de culture et solvant : Agar d'antibiotiques n° 1 (Oxoid CM 327) Bouillon de triptone-soja (Oxoid CM 129) Solution Physiologique Ringer 1/4 (Oxoid BR 52) Agar Dextrose (BBL 11165)
(§4) Microorganismes : "Bacillus subtilis" ATCC 6633 "Citrobacter freundii" ATCC 112606 "Enterobacter aerogenes" ATCC 15038 "Enterobacter cloacae" ATCC 23355 "Bacillus cereus" ATCC 1178 "Escherichia coli" ATCC 10799 "Escherichia coli" ATCC 23559 "Klebsiella pneumoniae" ATCC 10031 "Proteus vulgaris" ATCC 8427 "Morg. morganii" ATCC 8019 "Pseudomonas aeruginosa" ATCC 9721 "Pseudomonas aeruginosa" ATCC 10145 "Salmonella typhimurium" ATCC 14028 "Salmonella typhimurium" ATCC 6539 "Serratia marcescens" ATCC 13880 "Shigella flexnerii" ATCC 12022 "Staphylococcusepidermis" ATCC 155-1 "Staphylococcus aureus" ATCC 25178 "Streptococcus faecalis" ATCC 10541.
(§5) Chacun des microorganismes est ensemencé par strie dans des tubes d'Agar d'antibiotiques n° 1, et mis en incubation pendant 20 heures à 37°C. Ensuite, on prend une anse de culture, on ensemence dans un bouillon de Triptone-soja et on incube pendant 20 heures à 37°C. On dilue à 1/4 la culture obtenue avec une solution physiologique Ringer, de façon à obtenir une suspension normalisée de […] pour chaque organisme.
(§6) A partir d'une solution de 100 µg/ml, chaque produit est dilué dans l'Agar Dextrose (préalablement fondu et maintenu à 50°C) par dilutions successives de façon à obtenir les concentrations suivantes : 64-32-16-8-4-2-1-0,5-0,25-0,125 µg de dérivé/ml du milieu.
(§7) Postérieurement, chaque concentration de chaque produit est répartie dans des boîtes de Petri de 10 cm de diamètre, à raison de 10 ml de milieu par boîte et autant de boîtes que de microorganismes à tester.
(§8) Une fois le milieu refroidi, les boîtes sont ensemencées avec les inoculations à raison de 0,4 ml d'inoculation par boîte. On les étend avec une anse de Driglasky et on recueille le surnageant. Les boîtes ensemencées sont incubées à 37°C pendant 20 heures.
(§9) Les résultats obtenus sont décrits dans les tableaux suivants. Les concentrations sont données en µg/ml.
Background: In agar dilution the substance is mixed into plates at graded concentrations.

The subject of a further data set is Ent. cloacae ATCC 23355. Nature of the data set: Antimicrobial activity, agar dilution. The format is cell-based, Enterobacter cloacae. As to conditions: Enterobacter cloacae, ATCC23355, 20 h, Agar Dextrose dilutions, 37°C, 20 heures, read-out: Activité pharmacologique antimicrobienne (concentrations).
Description: as §1, §2, §3, §4, §5, §6, §7, §8, §9

Data set [1] relates to Ent. aerogenes ATCC 15038. Description: Antimicrobial activity, agar dilution. As to conditions: Klebsiella aerogenes, ATCC15038, 20 h, Agar Dextrose dilutions, 37°C, 20 heures, read-out: Activité pharmacologique antimicrobienne (concentrations). The format is cell-based, Enterobacter aerogenes.
Description: as §1, §2, §3, §4, §5, §6, §7, §8, §9

For data set [2], the system named is Strep. faecalis ATCC 10541. Nature of the data set: Antimicrobial activity, agar dilution. The format is cell-based, Streptococcus faecalis. As to conditions: Enterococcus faecalis, ATCC10541, 20 h, Agar Dextrose dilutions, 37°C, 20 heures, read-out: Activité pharmacologique antimicrobienne (concentrations).
Description: as §1, §2, §3, §4, §5, §6, §7, §8, §9

For another data set, the system named is Morg. morganii ATCC 8019. Description: Antimicrobial activity, agar dilution. The format is cell-based. As to conditions: Morganella morganii, ATCC8019, 20 h, Agar Dextrose dilutions, 37°C, 20 heures, read-out: Activité pharmacologique antimicrobienne (concentrations).
Description: as §1, §2, §3, §4, §5, §6, §7, §8, §9

The subject of data set [3] is Shigella flexnerii ATCC 12022. Description: Antimicrobial activity, agar dilution. The format is cell-based. As to conditions: ATCC12022, 20 h, Agar Dextrose dilutions, 37°C, 20 heures, read-out: Activité pharmacologique antimicrobienne (concentrations).
Description: as §1, §2, §3, §4, §5, §6, §7, §8, §9

Another data set deals with Ps. aeruginosa ATCC 9721. Nature of the data set: Antimicrobial activity, agar dilution. As to conditions: Pseudomonas aeruginosa, ATCC9721, 20 h, Agar Dextrose dilutions, 37°C, 20 heures, read-out: Activité pharmacologique antimicrobienne (concentrations). The format is cell-based.
Description: as §1, §2, §3, §4, §5, §6, §7, §8, §9

Data set [4] deals with Proteus vulgaris ATCC 8427. Nature of the data set: Antimicrobial activity, agar dilution. The format is cell-based. As to conditions: Proteus vulgaris, ATCC8427, 20 h, Agar Dextrose dilutions, 37°C, 20 heures, read-out: Activité pharmacologique antimicrobienne (concentrations).
Description: as §1, §2, §3, §4, §5, §6, §7, §8, §9

The subject of data set [5] is Bacillus subtilis ATCC 6633. Nature of the data set: Antimicrobial activity, agar dilution. The format is cell-based. As to conditions: ATCC6633, 20 h, Agar Dextrose dilutions, 37°C, 20 heures, read-out: Activité pharmacologique antimicrobienne (concentrations).
Description: as §1, §2, §3, §4, §5, §6, §7, §8, §9

Data set [6] relates to Staph. epidermidis ATCC 155-1. Description: Antimicrobial activity, agar dilution. As to conditions: Staphylococcus epidermidis, ATCC155, 20 h, Agar Dextrose dilutions, 37°C, 20 heures, read-out: Activité pharmacologique antimicrobienne (concentrations). The format is cell-based.
Description: as §1, §2, §3, §4, §5, §6, §7, §8, §9

Data set [7] deals with Bacillus cereus ATCC 11778. Description: Antimicrobial activity, agar dilution. As to conditions: Bacillus cereus, ATCC11778, 20 h, Agar Dextrose dilutions, 37°C, 20 heures, read-out: Activité pharmacologique antimicrobienne (concentrations). The format is cell-based.
Description: as §1, §2, §3, §4, §5, §6, §7, §8, §9

For data set [8], the system named is Escherichia coli ATCC 10799. Nature of the data set: Antimicrobial activity, agar dilution. The format is cell-based. As to conditions: Escherichia coli, ATCC10799, 20 h, Agar Dextrose dilutions, 37°C, 20 heures, read-out: Activité pharmacologique antimicrobienne (concentrations).
Description: as §1, §2, §3, §4, §5, §6, §7, §8, §9

In data set [9] the test system is Escherichia coli ATCC 23559. Nature of the data set: Antimicrobial activity, agar dilution. The format is cell-based. As to conditions: Escherichia coli, ATCC23559, 20 h, Agar Dextrose dilutions, 37°C, 20 heures, read-out: Activité pharmacologique antimicrobienne (concentrations).
Description: as §1, §2, §3, §4, §5, §6, §7, §8, §9

The next data set relates to Sal. typhi ATCC 6539. Description: Antimicrobial activity, agar dilution. The format is cell-based. As to conditions: Salmonella enterica, 20 h, read-out: Activité pharmacologique antimicrobienne (concentrations).
Description: as §1, §2, §3, §4, §5, §6, §7, §8, §9

In data set [10] the test system is Ps. aeruginosa ATCC 10145. Nature of the data set: Antimicrobial activity, agar dilution. The format is cell-based. As to conditions: Pseudomonas aeruginosa, ATCC10145, 20 h, Agar Dextrose dilutions, 37°C, 20 heures, read-out: Activité pharmacologique antimicrobienne (concentrations).
Description: as §1, §2, §3, §4, §5, §6, §7, §8, §9

Data set [11] in a line: Solubility in water and at pH 7.4. The format is physicochemical. An excerpt:
Un grand nombre des composés de l'invention manifestent une augmentation de la solubilité dans l'eau ainsi que de la solubilité à pH 7,4 lorsqu'on compare avec les composés de référence. L'augmentation de solubilité au pH physiologique peut favoriser l'absorption du produit et la solubilité élevée dans l'eau permet l'administration du composé par voie parentérale.

Data set [12] concerns Sal. typhimurium ATCC 14028. Description: Antimicrobial activity, agar dilution. The format is cell-based, Salmonella typhimurium. As to conditions: Salmonella enterica, 20 h, Agar Dextrose dilutions, 37°C, 20 heures, read-out: Activité pharmacologique antimicrobienne (concentrations).
Description: as §1, §2, §3, §4, §5, §6, §7, §8, §9

In data set [13] the test system is Serr. marcescens ATCC 13880. Description: Antimicrobial activity, agar dilution. The format is cell-based, Serratia marcescens. As to conditions: Serratia marcescens, ATCC13880, 20 h, Agar Dextrose dilutions, 37°C, 20 heures, read-out: Activité pharmacologique antimicrobienne (concentrations).
Description: as §1, §2, §3, §4, §5, §6, §7, §8, §9

The test system of data set [14] is Citr. freundii ATCC 11606. Nature of the data set: Antimicrobial activity, agar dilution. The format is cell-based, Citrobacter freundii. As to conditions: Citrobacter freundii, ATCC11606, 20 h, Agar Dextrose dilutions, 37°C, 20 heures, read-out: Activité pharmacologique antimicrobienne (concentrations).
Description: as §1, §2, §3, §4, §5, §6, §7, §8, §9

The test system of data set [15] is Kleb. pneumoniae ATCC 10031. Description: Antimicrobial activity, agar dilution. As to conditions: Klebsiella pneumoniae, ATCC10031, 20 h, Agar Dextrose dilutions, 37°C, 20 heures, read-out: Activité pharmacologique antimicrobienne (concentrations). The format is cell-based, Klebsiella pneumoniae.
Description: as §1, §2, §3, §4, §5, §6, §7, §8, §9

In brackets after ≈: the same amount, converted by molar mass.

Regarding `C[C@H](N)C(=O)N[C@@H](C)C(=O)N[C@@H]1CN(c2nc3c(cc2F)c(=O)c(C(=O)O)cn3C2CC2)[C@H]1C` [Exemple 4aAA], the MIC is 4 µg/mL (≈ 8.43 µM) in the data set on Staph. aureus ATCC 25178; 2 µg/mL (≈ 4.22 µM) with Ent. cloacae ATCC 23355; 2 µg/mL (≈ 4.22 µM) in data set [1]; over 16 µg/mL in data set [2]; 4 µg/mL (≈ 8.43 µM) in the data set on Morg. morganii ATCC 8019; 2 µg/mL (≈ 4.22 µM) in data set [3]. Moreover, the MIC in the data set with Ps. aeruginosa ATCC 9721 is over 16 µg/mL; in data set [4], 8 µg/mL (≈ 16.9 µM); in data set [5] it was 1 µg/mL (≈ 2.11 µM); in data set [6], 8 µg/mL (≈ 16.9 µM); in data set [7] it was 16 µg/mL (≈ 33.7 µM); in [8], 2 µg/mL (≈ 4.22 µM). Besides, the MIC in [9] is 2 µg/mL (≈ 4.22 µM); in the data set on Sal. typhi ATCC 6539 it was 2 µg/mL (≈ 4.22 µM); in [10], over 16 µg/mL; in data set [12] it was 2 µg/mL (≈ 4.22 µM); in data set [13] it was 8 µg/mL (≈ 16.9 µM); in [14], 2 µg/mL (≈ 4.22 µM). The MIC in data set [15] was determined as 8 µg/mL (≈ 16.9 µM). For the same molecule, the solubility in [11] (pH 7) and in [11] (water) was over 500 µg/mL each time.
In the case of `CC(C)C[C@H](N)C(=O)N[C@@H]1CN(c2nc3c(cc2F)c(=O)c(C(=O)O)cn3C2CC2)[C@H]1C` [Exemple 4aL, chlorhydratede l'acide 7-[(2S,3R)-2-méthyl-3-Leu-amino-1-azétidinyl]-1-cyclopropyl-6-fluoro-1,4-dihydro-4-oxo-1,8-naphtyridine-3-carboxylique], the MIC turned out to be 0.25 µg/mL with Staph. aureus ATCC 25178; 0.12 µg/mL in the data set on Ent. cloacae ATCC 23355; 0.12 µg/mL in data set [1]; 2 µg/mL in [2]; 0.25 µg/mL in the data set with Morg. morganii ATCC 8019; 0.06 µg/mL in data set [3]. In addition, the MIC in the data set on Ps. aeruginosa ATCC 9721 turned out to be 2 µg/mL; in data set [4], 0.25 µg/mL; in data set [5], 0.12 µg/mL; in [6], 0.25 µg/mL; in [7], 0.12 µg/mL; in data set [8], 0.12 µg/mL. In addition, the MIC in data set [9] turned out to be 0.06 µg/mL; with Sal. typhi ATCC 6539, 0.12 µg/mL; in [10], 8 µg/mL; in [12], 0.12 µg/mL; in data set [13], 0.25 µg/mL; in [14], 0.12 µg/mL. Also, the MIC in data set [15] was determined as 0.06 µg/mL. In addition, the solubility in data set [11] (pH 7) and in data set [11] (water) was over 500 µg/mL throughout.
